Reference: the supplement of paper PMC12317010
Counter-ions that a name gives are not always drawn.

Assay: collision cross section in nitrogen (drift tube, single-field); higher = larger gas-phase ion size
[1] = ion type: [M+Na], ion source: ESI, ion mode: Positive
[2] = ion type: [M+H], ion source: ESI, ion mode: Positive
[3] = ion source: APCI, ion mode: Positive, ion type: [M]+ (permanent cation)
[4] = ion source: ESI, ion mode: Positive, ion type: [M]+ (permanent cation)
[5] = ion type: [M+H], ion source: APCI, ion mode: Positive
[6] = ion type: [M-H], ion source: ESI, ion mode: Negative
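Note: chemical standards at 10 µM analysed by drift tube IMS-QTOF MS in about 3.95 torr nitrogen, mean of duplicate injections differing ≤1%, mass error below 10 ppm.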

| Compound | collision cross section in nitrogen [1] [Å²] | collision cross section in nitrogen [2] [Å²] | collision cross section in nitrogen [5] [Å²] | collision cross section in nitrogen [6] [Å²] | further results |
| --- | --- | --- | --- | --- | --- |
| CCCCN(CCCC)CCCCCCN(CCCC)CCCC [N,N,N',N'-Tetrabutyl-1,6-hexanediamine] | – | 193.6 | – | – | – |
| CCCCCCCCCCCCCCCCCC[N+](C)(C)C [N,N,N-Trimethyloctadecan-1-aminium chloride] | – | – | – | – | collision cross section in nitrogen [3]: 200.2 Å²; collision cross section in nitrogen [4]: 200.7 Å² |
| CCCC[N+](C)(CCCC)CCCC [N,N-Dibutyl-N-methylbutan-1-aminium chloride] | – | – | – | – | collision cross section in nitrogen [3]: 153.8 Å²; collision cross section in nitrogen [4]: 154.5 Å² |
| c1ccc2sc(SN(C3CCCCC3)C3CCCCC3)nc2c1 [N,N-Dicyclohexyl-2-benzothiazolesulfenamide] | 193.7 | 185.8 | 186.2 | – | – |
| CCN(CC)c1ccccc1 [N,N-Diethylaniline] | 132.8 | – | – | – | – |
| CN(C)c1ccc(N=O)cc1 [N,N-Dimethyl-4-nitrosoaniline] | – | 128.4 | 128.7 | – | – |
| CN(C)c1ccccc1 [N,N-Dimethylaniline] | 123.8 | – | – | – | – |
| CN(C)c1ccncc1 [N,N-dimethylpyridin-4-amine] | – | 120.5 | 120.6 | – | – |
| CCCCCCC(C)Nc1ccc(Nc2ccccc2)cc1 (stereo not drawn) [N-(1-Methylheptyl)-N'-phenyl-1,4-benzenediamine] | 190 | – | – | – | – |
| Cc1ccc(NC=O)c(C)c1 [N-(2,4-Dimethylphenyl)formamide] | – | – | – | 133.8 | – |
| O=C(Nc1ccc2c(c1)Cc1ccccc1-2)C(F)(F)F [N-(2-Fluorenyl)-2,2,2-trifluoroacetamide] | – | – | – | 160.4 | collision cross section in nitrogen (ion type: [M+], ion source: APCI, ion mode: Positive): 156.6 Å² |
| CNC(=O)Nc1ccc(Cl)c(Cl)c1 [N-(3,4-Dichlorophenyl)-N'-methylurea] | – | – | – | 142.4 | – |
| NC(=O)Nc1ccc(Cl)c(Cl)c1 [N-(3,4-Dichlorophenyl)urea] | – | – | – | 135.7 | – |
| C(=CNc1ccccc1)C=Nc1ccccc1 [N-(3-Anilino-2-propenylidene)aniline monohydrochloride] | – | 159.3 | – | 158.6 | – |
| COc1cc2ncnc(Nc3cccc(Cl)c3)c2cc1OC [N-(3-Chlorophenyl)-6,7-dimethoxyquinazolin-4-amine] | – | 171 | 177.3 | 177.1 | – |
| O=C(NCc1cccnc1)Nc1ccc([N+](=O)[O-])cc1 [N-(4-Nitrophenyl)-N'-(3-pyridinylmethyl)urea] | – | 174.3 | 174.7 | 165.3 | – |
| CC(C)C[C@H](NC(=O)OCC1c2ccccc2-c2ccccc21)C(=O)O [N-(9-Fluorenylmethoxycarbonyl)-L-leucine] | 184.7 | – | – | – | – |
| c1ccc(CNc2[nH]cnc3ncnc2-3)cc1 [N-Benzyl-1H-purin-6-amine] | 162.8 | 148.3 | 148.7 | 154.5 | – |
| c1ccc(CNc2ncnc3c2ncn3C2CCCCO2)cc1 (stereo not drawn) [N-Benzyl-9-(tetrahydro-2H-pyran-2-yl)adenine] | 189.3 | 176.5 | 177.9 | 185.6 | – |
| CCCC[n+]1ccccc1 [N-Butylpyridinium chloride] | – | – | – | – | collision cross section in nitrogen [4]: 127.7 Å² |
| CCNS(=O)(=O)C(F)(F)C(F)(F)C(F)(F)C(F)(F)C(F)(F)C(F)(F)C(F)(F)C(F)(F)F [N-Ethylperfluorooctane sulfonamide] | – | – | – | 180.4 | – |
| CCN1C(=O)c2ccccc2C1=O [N-Ethylphthalimide] | – | 135.4 | 133.7 | – | – |
| CN(N=O)c1ccccc1 [N-Methyl-N-nitrosoaniline] | – | 125.1 | 124.5 | – | – |
| CN1C(=O)c2ccccc2C1=O [N-Methylphthalimide] | – | – | 129 | – | – |
| Nc1ccc(Nc2ccccc2)cc1 [N-Phenyl-1,4-benzenediamine] | – | – | 143.1 | – | – |

Continued, in another order:

| collision cross section in nitrogen [1] [Å²] | collision cross section in nitrogen [2] [Å²] | collision cross section in nitrogen [5] [Å²] | collision cross section in nitrogen [6] [Å²] | Compound | further results |
| --- | --- | --- | --- | --- | --- |
| 128.2 | – | – | – | Cc1ccc(N(C)C)cc1 [N,N,4-Trimethylaniline] | – |
| 179.4 | 179.1 | 179.7 | – | CCCCCCCCCCCC(=O)N(CC)CC [N,N-Diethyldodecanamide] | – |
| 166.7 | 164.1 | – | – | CCCCCCCCCC[N+](C)(C)[O-] [N,N-Dimethyldecylamine oxide] | – |
| 170.8 | 174.4 | 175.3 | – | CCCCCCCCCCCC[N+](C)(C)[O-] [N,N-Dimethyldodecylamine-N-oxide] | – |
| – | 146.8 | 146.6 | – | CCCCCCCC(=O)N(C)C [N,N-Dimethyloctanamide] | – |
| 151.1 | – | – | – | CCC(CC)Nc1ccc(C)c(C)c1 [N-(1-Ethylpropyl)-3,4-xylidine] | – |
| 160.6 | – | 147.7 | 148.8 | CC(=O)CC(=O)Nc1ccc(C)cc1C [N-(2,4-Dimethylphenyl)-3-oxobutanamide] | – |
| – | 136.2 | – | – | CC(=O)Nc1ccc(C)cc1C [N-(2,4-Dimethylphenyl)acetamide] | – |
| 159.2 | – | – | 154.4 | COc1ccc(OC)c(NC(=O)CC(C)=O)c1 [N-(2,5-Dimethoxyphenyl)-3-oxobutanamide] | – |
| 152.3 | – | – | – | COc1ccccc1NC(=O)CC(C)=O [N-(2-Methoxyphenyl)-3-oxobutanamide] | – |
| 154.9 | – | – | 142.5 | CC(=O)CC(=O)Nc1ccccc1C [N-(2-Methylphenyl)-3-oxobutanamide] | – |
| – | 136.5 | 135.8 | 138.7 | CCC(=O)Nc1cccc(N)c1 [N-(3-Aminophenyl)propanamide] | – |
| – | – | – | 138.2 | CC(=O)Nc1ccc(C)c(Cl)c1 [N-(3-Chloro-4-methylphenyl)acetamide] | – |
| – | 137.1 | 135.8 | – | C=C(C)C(=O)NCCCN(C)C [N-(3-Dimethylaminopropyl)methacrylamide] | – |
| 167.3 | – | 154.6 | 155.9 | CCOc1ccc(NC(=O)CC(C)=O)cc1 [N-(4-Ethoxyphenyl)-3-oxobutanamide] | – |
| 160.2 | – | 146.5 | 148.5 | COc1ccc(NC(=O)CC(C)=O)cc1 [N-(4-Methoxyphenyl)-3-oxobutanamide] | – |
| – | – | – | 135.1 | CC(=O)NCc1ccccc1 [N-Benzylacetamide] | – |
| – | 134.9 | – | – | OCCNCc1ccccc1 [N-Benzylethanolamine] | – |
| – | 154 | 153.3 | – | CCCCNC1CC(C)(C)NC(C)(C)C1 [N-Butyl-2,2,6,6-tetramethylpiperidin-4-amine] | – |
| 169.3 | – | – | 155 | CCCCNS(=O)(=O)c1ccc(C)cc1 [N-Butyl-p-toluenesulfonamide] | – |
| – | – | – | 148.3 | CCCCNS(=O)(=O)c1ccccc1 [N-Butylbenzenesulfonamide] | – |
| – | 136.7 | 136.3 | – | CCCCN(CCO)CCO [N-Butyldiethanolamine] | – |
| – | 142.8 | – | – | N#CCCN(CCO)c1ccccc1 [N-Cyanoethyl-hydroxyethyl aniline] | – |
| 175.7 | – | – | 170.1 | CCCCCCCCCCCC(=O)N(C)CC(=O)O [N-Dodecanoyl-N-methylglycine] | – |
| 171.3 | 152.7 | 153.5 | 155.6 | CCNC(=O)C1CC(C)CCC1C(C)C (stereo not drawn) [N-Ethyl-2-(isopropyl)-5-methylcyclohexanecarboxamide] | – |
| – | 140.5 | 139.5 | – | CCN(CCN)c1cccc(C)c1 [N-Ethyl-N-(3-methylphenyl)ethane-1,2-diamine] | – |
| – | 137.9 | 137.7 | – | OCCN(CCO)c1ccccc1 [N-Phenyl diethanolamine] | – |
